Laboratory results as given in patent US20100239563A1 (priority 2001, published 2010).

Key:
[1] = tested on: influenza A virus strain WSN-HK
[2] = tested on: influenza B virus strain Massachusetts/6/93
[3] = tested on: influenza B viruses/Massachusetts/6/92 (B/Mass)
[4] = human, in vivo; cited from earlier work

Row | Compound | reduction of the number of newly formed infectious virus particles [1] | cytotoxic effect on the cells (MDCK cells) | reduction of the number of newly formed infectious virus particles [2] | titer of infectious virus particles over infection sequences [3] | MTD [4]
1 | N#CC(=C(N)Sc1ccccc1N)C(C#N)=C(N)Sc1ccccc1N [U0126, 1,4-diamino-2,3-dicyano-1,4-bis(2-aminophenylthio)butadiene] | approx. 80% | neither solvent nor inhibitor have a significant cytotoxic effect | approx. 90% | significant reduction of the influenza virus particles | 
2 | CN1CC[C@H](c2c(O)cc(O)c3c(=O)cc(-c4ccccc4Cl)oc23)[C@H](O)C1 [flavopiridol] |  |  |  |  | 50 mg/m^2/dx3
